Source: paper PMC9929129, “Towards Translation of PqsR Inverse Agonists: From In Vitro Efficacy Optimization to In Vivo Proof‐of‐Principle” (Advanced Science, 2023)

Assays:
[1] = tested on: P. aeruginosa strain ATCC 27853; assay: Neutropenic thigh infection model in mice
Protocol: Figure S6. AUC levels after IV and IT administration
1.4.8 In vivo thigh infection model with P. aeruginosa
Male, 6 weeks-old, CD -1 mice (Charles River, Netherlands) were rendered neutropenic by administration of 150 mg/kg and 100 mg/kg cyclophosphamide i.p. on day –4, –1 and +1, respectively. The P. aeruginosa strain ATCC 27853 was used. The inoculum was prepared as follows: on day –1 the P. aeruginosa strain was streaked out onto a blood agar plate and incubated at 37 °C.
Then one sing le colony was inoculated into MHB medium (diluted 1:2 in water) and incubated at 120 rpm and 37 °C. […]
PBS. Then they were adjusted to an OD of 1 and diluted 1:5000 in PBS. The inoculum was plated onto MHB agar plates in serial dilutions and incubated at 37 °C. Mice were grouped into the following (n=18 for each group): (1) baseline inoculum group, sacrificed 2 h post infection; (2) vehicle control group (receiving vehicle t= 2, 12, 24 and 36 h post infection as well as 20 mg/kg tramadol SC t= 0 and 24 h post infection); (3) tobramycin group I (8 mg/kg tobramycin IV at t= 2 and 24 h post infection); (4) tobramycin group II (1 mg/kg tobramycin IV at t= 2 and 24 h post infection); (5) 24 group (30 mg/kg 24 SC at t=2, 12, 24 and 36 h post infection); (6) 24 + tobramycin group (30 mg/kg 24 SC at t=2, 12, 24 and 36 h and tobramycin 1 mg/kg IV at t= 2 and 24 h post infection). On the day of infection (day 0), mice received 30 µL of the P. aeruginosa strain ATCC 27853 into each lateral thigh (inoculum:
1x10^5 cfu/mL). 48 h after infection, mice were euthanized, blood was removed from the heart, lung and thighs were aseptically removed. […]
homogenized in 0.9% NaCl-solution and plated onto MHB agar plates in duplicate in serial dilutions and incubated at 37 °C for 24 h. Blood, lung and thighs were also subjected to LC-MS/MS analysis.
Figure S8. Plasma and lung-tissue levels after the in vivo infection model.

[2] = tested on: PA14 biofilm; assay: Biofilm-eradication assay with tobramycin (Calgary biofilm device); format: cell-based, Pseudomonas aeruginosa
Protocol: MA, USA) instrument parameters: Spray voltage 3500 V, vaporizer temperature 370 °C, sheath gas pressure 35 psi, aux gas pressure 30 psi, capillary temperature 270 °C, collision pressure 1.5 mTorr, positive ionization mode. For AQ analyte reaction monitoring parameters please see Table S1.
Table S1. LC-ESI-MS/MS reaction monitoring parameters of AQ analytes in positive ionization mode. precursor product ion collision tube lens retention ion m/z m/z energy (V) offset (V) time (min)
1.2.4 Biofilm-formation assay
Biofilm formation was determined using a MBEC Assay® Biofilm Inoculator with 96-well base (Innvotech, Edmonton, CA). An overnight culture of PA14 was centrifuged (10 min, 5000 x g). The supernatant including extracellular polymers was removed and the pellet washed with 10 mL of LB medium. Centrifugation was repeated, the supernatant discarded, and the pellet resuspended in 5 mL of LB. OD was adjusted to 0.2. The bacteria were further diluted in LB medium, followed by addition of the target compound or DMSO control to give OD 0.1 and 1% DMSO. 150 µL were added to each well of the 96-well plate. The outer wells were used as blanks containing 150 µL of 1% DMSO in LB. Six replicates per sample were distributed evenly across the plate, with every row containing one replicate of each sample. The well plate was covered with the peg lid. One layer of parafilm was wrapped around the biofilm inoculator. The inoculator was incubated at 37 °C, static for 24 h with a beaker of H2O ensuring humidity. Alternatively, the plate was incubated using only LB for 8 h prior to addition of DMSO/24 to give 1% DMSO, followed by another 16 h incubation under the same […]
After 24 h, the plate was removed from the incubator and the peg lid was transferred to a fresh 96 well plate (Nunc U bottom, Thermo Fisher, Dreieich, Germany) containing the respective target […]
compound, 150 µL 1% DMSO in LB. The inoculator was wrapped with parafilm again and incubated for another 24 h. […]
Statistical outliers were determined using the Nalimov test, applying a 95% cut-off. […]

Row | SMILES | bacterial burden in the muscle compared to all other groups ([1]; 24 30 mg kg^−1 SC combined with low dose tobramycin 1 mg kg^−1 IV, 48 h, p < 0.001) | bacterial burden, secondary site of infection (lung), dissemination ([1]; 24 30 mg/kg SC combined with low tobramycin dose 1 mg/kg IV, 48 h) | CFU reduction over vehicle, primary infection site (thigh muscle) ([1]; 24 alone, 30 mg/kg SC at 2, 12, 24 and 36 h p.i., 48 h) | bacterial burden, secondary site of infection (lung), dissemination ([1]; 24 alone, 30 mg/kg SC, 48 h) | Potentiation of tobramycin activity on biofilm ([2]; 0.1 × 10^−6 M 24 plus tobramycin 0.5 µg mL^−1, p = 0.21) | CFU reduction of combination treatment compared to single treatment with the antibiotic ([2]; 1 and 10 × 10^−6 M 24 plus tobramycin 0.5 µg mL^−1) | terminal level in plasma and lung tissue (LC–MS/MS) ([1]; 48 h after infection) | CFU reduction over vehicle, primary infection site (thigh muscle) ([1]; tobramycin high, 8 mg/kg IV at 2 and 24 h p.i., 48 h) | bacterial burden, secondary site of infection (lung), dissemination ([1]; tobramycin high, 8 mg/kg IV, 48 h) | CFU reduction over vehicle, primary infection site (thigh muscle) ([1]; tobramycin low, 1 mg/kg IV at 2 and 24 h p.i., 48 h) | bacterial burden, secondary site of infection (lung), dissemination ([1]; tobramycin low, 1 mg/kg IV, 48 h) | Effect of tobramycin alone on untreated biofilms (CFU) ([2]; tobramycin 0.5 µg mL^−1, 24 h treatment, p = 0.03)
1 | CC(C)Oc1ccc(-c2ncc(CNc3ccnc(C(F)(F)F)c3)cn2)cc1Cl [Compound 24] | significantly reduced bacterial burden | detectable inhibition of dissemination | did not exert significant effects | did not show a significant effect | not sufficient | > 3 fold |  |  |  |  |  | 
2 | NC[C@H]1O[C@H](O[C@H]2[C@H](O)[C@@H](O[C@H]3O[C@H](CO)[C@@H](O)[C@H](N)[C@H]3O)[C@H](N)C[C@@H]2N)[C@H](N)C[C@@H]1O [Tobramycin, tobramycin] |  |  |  |  |  |  | did not detect any | did not exert significant effects | did not reach significance | did not exert significant effects | did not show a significant effect | only minor effects
